The record followed here is US9701664B2, “Fused 1,4-dihydrodioxin derivatives as inhibitors of heat shock transcription factor 1” (Cancer Research Technology Limited, priority 2013, dated 2017).

Molecules are shown by their SMILES.

The test system of this assay is HSP72 in U2OS cells. Put plainly: Cell-based ELISA (Cellisa) assay, U2OS cells: inhibition of 17-AAG-induced HSP72. To be noted: Homo sapiens; U2OS cells (Examples 1-168). The protocol:
U2OS cells (5-8×10^4 cells/mL) or SK-OV-3 cells (5-8×10^4 cells/mL) were seeded into 96-well plates and incubated at 37° C. for 48 h. Compounds were then added at a range of concentrations and incubated for 1 h before addition of 17-AAG (250 nM). Cells were then incubated for 18 h. The medium was removed washed 2× with PBS and cells were then fixed with fixing solution (4% paraformaldehyde, 0.3% TritonX-100 in PBS) for 30 min at 4° C. The plates were then washed 2× with PBS before blocking with 5% milk for 30 min at 37° C. After washing the plates 4× with 0.1% Tween-20/deionised water, HSP72 antibody (SPA-810, Enzo Life) was added for 1.5 h at 37° C. Following 4× washes, the plates were incubated with europium-labelled anti-mouse antibody (0.6 ug/ml) in Delfia assay buffer (Perkin Elmer) for 1 h at 37° C. After washing the plates, Delfia enhancement solution was added, shaken for 10 min before reading in the Envision plate reader (Perkin-Elmer) with excitation at 340 nm and emission at 615 nm. The plates were washed again before protein determination using the bicinchoninic acid assay (BCA assay, Pierce Biotechnology). The europium counts were normalised for the amount of protein in each well. The 50% inhibitory concentration value of the compound was then calculated.
(In an ELISA, binding on a coated surface is turned into a signal by an enzyme label.)
A word on the IC50: it is the concentration needed to halve the response being measured. A lower IC50 goes with inhibition by little substance. For `Cc1ccc(NC(=O)c2ccc3c(c2)OCCO3)cc1NC(=O)c1ccc2ncccc2c1` [Example 1, N-(5-(2,3-dihydrobenzo[b][1,4]dioxine-6-carboxamido)-2-methylphenyl)quinoline-6-carboxamide], inhibition was half-maximal at 5 nM (IC50).
Compound `Cc1ccc(NC(=O)c2ccc3c(c2)OCCO3)cc1NC(=O)c1ccc2ccncc2c1` [Example 2, N-(5-(2,3-dihydrobenzo[b][1,4]dioxine-6-carboxamido)-2-methylphenyl)isoquinoline-7-carboxamide] registered an IC50 of 7 nM.
In the case of `Cc1ccc(NC(=O)c2ccc3c(c2)OCCO3)cc1NC(=O)c1ccc2nc(Cl)ccc2c1` [Example 12, 2-chloro-N-(5-(2,3-dihydrobenzo[b][1,4]dioxine-6-carboxamido)-2-methylphenyl)quinoline-6-carboxamide], the half-maximal inhibitory concentration (IC50) was found to be 51 nM.
In turn, `Cc1ccc(NC(=O)c2ccc3c(c2)OCCO3)cc1NC(=O)c1ccc(OCc2cncs2)cc1` [Example 20, N-(4-methyl-3-(4-(thiazol-5-ylmethoxy)benzamido)phenyl)-2,3-dihydrobenzo[b][1,4]dioxine-6-carboxamide] yielded a half-maximal inhibitory concentration (IC50) of 1480 nM.
Compound `COCCOc1cc(OC)c2cc(C(=O)Nc3cc(NC(=O)c4ccc5c(c4)OCCO5)ccc3C)ccc2n1` [Example 22, N-(5-(2,3-dihydrobenzo[b][1,4]dioxine-6-carboxamido)-2-methylphenyl)-4-methoxy-2-(2-methoxyethoxy)quinoline-6-carboxamide] returned an IC50 of 160 nM.
Next, `Cc1ccc(NC(=O)c2ccc3c(c2)OCCO3)cc1NC(=O)c1ccc2c(ccc[n+]2[O-])c1` [Example 23, 6-((5-(2,3-dihydrobenzo[b][1,4]dioxine-6-carboxamido)-2-methylphenyl)carbamoyl)quinoline 1-oxide]: 161 nM; `Cc1ccc(NC(=O)c2ccc3c(c2)OCCO3)cc1NC(=O)c1ccc2c(c1)CCN2C(=O)OC(C)(C)C` [Example 30, tert-butyl 5-((5-(2,3-dihydrobenzo[b][1,4]dioxine-6-carboxamido)-2-methylphenyl)carbamoyl)indoline-1-carboxylate]: 507 nM.
In turn, `Cc1ccc(NC(=O)c2ccc3c(c2)OCCO3)cc1NC(=O)c1ccc2c(c1)CCN(C(=O)OC(C)(C)C)C2` [Example 31, tert-butyl 6-((5-(2,3-dihydrobenzo[b][1,4]dioxine-6-carboxamido)-2-methylphenyl)carbamoyl)-3,4-dihydroisoquinoline-2(1H)-carboxylate] showed a 50% inhibitory concentration (IC50) of 545 nM.
The compound `Cc1ccc(NC(=O)c2ccc3c(c2)OCCO3)cc1NC(=O)c1ccc2nc(N3CCOCC3)ccc2c1` [Example 32, N-(5-(2,3-dihydrobenzo[b][1,4]dioxine-6-carboxamido)-2-methylphenyl)-2-morpholinoquinoline-6-carboxamide] had an IC50 of 665 nM.
For `Cc1ccc(NC(=O)c2ccc3c(c2)OCCO3)cc1NC(=O)c1ccc(-c2ccccc2)nc1` [Example 37, N-(5-(2,3-dihydrobenzo[b][1,4]dioxine-6-carboxamido)-2-methylphenyl)-6-phenylnicotinamide], 1960 nM corresponded to half-maximal inhibition (IC50).
The figure for `Cc1ccc(NC(=O)c2ccc3c(c2)OCCO3)cc1NC(=O)c1ccc(Nc2cccc(I)c2)nc1` [Example 38, N-(5-(2,3-dihydrobenzo[b][1,4]dioxine-6-carboxamido)-2-methylphenyl)-6-((3-iodophenyl)amino)nicotinamide] is 41 nM; for `COc1cccc(C(=O)Nc2cc(NC(=O)c3ccc4c(c3)OCCO4)ccc2C)c1` [Example 40, N-(3-(3-methoxybenzamido)-4-methylphenyl)-2,3-dihydrobenzo[b][1,4]dioxine-6-carboxamide] it is 1160 nM.
Next, `Cc1ccc(NC(=O)c2ccc3c(c2)OCCO3)cc1NC(=O)c1ccc2nc(N3CCN(C)CC3)ccc2c1` [Example 74, N-(5-(2,3-dihydrobenzo[b][1,4]dioxine-6-carboxamido)-2-methylphenyl)-2-(4-methylpiperazin-1-yl)quinoline-6-carboxamide]: 232 nM.
Next, `CCc1ccc2cc(C(=O)Nc3cc(NC(=O)c4ccc5c(c4)OCCO5)ccc3C)ccc2n1` [Example 77, N-(5-(2,3-dihydrobenzo[b][1,4]dioxine-6-carboxamido)-2-methylphenyl)-2-ethylquinoline-6-carboxamide]: 26 nM.
In the case of `CCC(=O)NCCOc1ccc2cc(C(=O)Nc3cc(NC(=O)c4ccc5c(c4)OCCO5)ccc3C)ccc2n1` [Example 81, N-(5-(2,3-dihydrobenzo[b][1,4]dioxine-6-carboxamido)-2-methylphenyl)-2-(2-propionamidoethoxy)quinoline-6-carboxamide], the IC50 was 100 nM.
The compound `Cc1ccc(NC(=O)c2ccc3c(c2)OCCO3)cc1NC(=O)c1ccc2c(c1)CCCCN2` [Example 82, N-(5-(2,3-dihydrobenzo[b][1,4]dioxine-6-carboxamido)-2-methylphenyl)-2,3,4,5-tetrahydro-1H-benzo[b]azepine-7-carboxamide] returned an IC50 of 156 nM.
In turn, `CCC(=O)NCCNc1ccc2cc(C(=O)Nc3cc(NC(=O)c4ccc5c(c4)OCCO5)ccc3C)ccc2n1` [Example 83, N-(5-(2,3-dihydrobenzo[b][1,4]dioxine-6-carboxamido)-2-methylphenyl)-2-((2-propionamidoethyl)amino)quinoline-6-carboxamide] gave a 50% inhibitory concentration (IC50) of 161 nM.
Next, `Cc1ccc(NC(=O)c2ccc3c(c2)OCCO3)cc1NC(=O)c1ccc2c(c1)CCC(CN(C)C(=O)OC(C)(C)C)N2` (centres unmarked) [Example 85, tert-butyl ((6-((5-(2,3-dihydrobenzo[b][1,4]dioxine-6-carboxamido)-2-methylphenyl)carbamoyl)-1,2,3,4-tetrahydroquinolin-2-yl)methyl)(methyl)carbamate]: 1140 nM.
`CNCC1CCc2cc(C(=O)Nc3cc(NC(=O)c4ccc5c(c4)OCCO5)ccc3C)ccc2N1` (centres unmarked) [Example 86, N-(5-(2,3-dihydrobenzo[b][1,4]dioxine-6-carboxamido)-2-methylphenyl)-2-((methylamino)methyl)-1,2,3,4-tetrahydroquinoline-6-carboxamide] displayed an IC50 of 195 nM.
Next, `Cc1ccc(NC(=O)c2ccc3c(c2)OCCO3)cc1NC(=O)c1ccc2c(c1)CCNC2` [Example 88, N-(5-(2,3-dihydrobenzo[b][1,4]dioxine-6-carboxamido)-2-methylphenyl)-1,2,3,4-tetrahydroisoquinoline-6-carboxamide]: 770 nM.
`Cc1ccc(NC(=O)c2ccc3c(c2)OCCO3)cc1NC(=O)c1ccc(Nc2ccccc2)nc1` [Example 94, N-(5-(2,3-dihydrobenzo[b][1,4]dioxine-6-carboxamido)-2-methylphenyl)-6-(phenylamino)nicotinamide]: the IC50 was found to be 73 nM.
Next, `Cc1ccc(NC(=O)c2ccc3c(c2)OCCO3)cc1NC(=O)c1ccnc(N2CCOCC2)c1` [Example 98, N-(5-(2,3-dihydrobenzo[b][1,4]dioxine-6-carboxamido)-2-methylphenyl)-2-morpholinoisonicotinamide]: 2660 nM; `CCNc1ccc(C(=O)Nc2cc(NC(=O)c3ccc4c(c3)OCCO4)ccc2C)cn1` [Example 102, N-(5-(2,3-dihydrobenzo[b][1,4]dioxine-6-carboxamido)-2-methylphenyl)-6-(ethylamino)nicotinamide]: 835 nM.
The figure for `Cc1ccc(NC(=O)c2ccc3c(c2)OCCO3)cc1NC(=O)c1ccc(N)nc1` [Example 104, 6-amino-N-(5-(2,3-dihydrobenzo[b][1,4]dioxine-6-carboxamido)-2-methylphenyl)nicotinamide] is 482 nM; for `Cc1ccc2cc(C(=O)Nc3cc(NC(=O)c4ccc5c(c4)OCCO5)ccc3C)ccc2c1` [Example 108, N-(4-methyl-3-(6-methyl-2-naphthamido)phenyl)-2,3-dihydrobenzo[b][1,4]dioxine-6-carboxamide] it is 483 nM.
The figure for `Cc1cc(NCCCN(C)C)c2cc(C(=O)Nc3cc(NC(=O)c4ccc5c(c4)OCCO5)ccc3C)ccc2n1` [Example 111, N-(5-(2,3-dihydrobenzo[b][1,4]dioxine-6-carboxamido)-2-methylphenyl)-4-(3-(dimethylamino)propylamino)-2-methylquinoline-6-carboxamide] is 1840 nM; for `Cc1ccc(NC(=O)c2ccc3c(c2)OCCO3)cc1NC(=O)c1ccc2ncsc2c1` [Example 114, N-(5-(2,3-dihydrobenzo[b][1,4]dioxine-6-carboxamido)-2-methylphenyl)benzo[d]thiazole-6-carboxamide] it is 35 nM; for `Cc1cc(NCCN2CCCC2)c2cc(C(=O)Nc3cc(NC(=O)c4ccc5c(c4)OCCO5)ccc3C)ccc2n1` [Example 117, N-(5-(2,3-dihydrobenzo[b][1,4]dioxine-6-carboxamido)-2-methylphenyl)-2-methyl-4-(2-(pyrrolidin-1-yl)ethylamino)quinoline-6-carboxamide] it is 635 nM.
`Cc1cc(NCCN2CCOCC2)c2cc(C(=O)Nc3cc(NC(=O)c4ccc5c(c4)OCCO5)ccc3C)ccc2n1` [Example 118, N-(5-(2,3-dihydrobenzo[b][1,4]dioxine-6-carboxamido)-2-methylphenyl)-2-methyl-4-(2-morpholinoethylamino)quinoline-6-carboxamide] registered an IC50 of 618 nM.
